Laboratory results reported in ChEMBL document CHEMBL3991601, “The target landscape of clinical kinase drugs” (Science, 2017).
Activity calls are given as the source filed them.

Columns and labels:
[1] = molecular target: T1, Tyrosine-protein kinase Tec (Homo sapiens, UniProt P42680)
T1 sequence (P42680 whole entry): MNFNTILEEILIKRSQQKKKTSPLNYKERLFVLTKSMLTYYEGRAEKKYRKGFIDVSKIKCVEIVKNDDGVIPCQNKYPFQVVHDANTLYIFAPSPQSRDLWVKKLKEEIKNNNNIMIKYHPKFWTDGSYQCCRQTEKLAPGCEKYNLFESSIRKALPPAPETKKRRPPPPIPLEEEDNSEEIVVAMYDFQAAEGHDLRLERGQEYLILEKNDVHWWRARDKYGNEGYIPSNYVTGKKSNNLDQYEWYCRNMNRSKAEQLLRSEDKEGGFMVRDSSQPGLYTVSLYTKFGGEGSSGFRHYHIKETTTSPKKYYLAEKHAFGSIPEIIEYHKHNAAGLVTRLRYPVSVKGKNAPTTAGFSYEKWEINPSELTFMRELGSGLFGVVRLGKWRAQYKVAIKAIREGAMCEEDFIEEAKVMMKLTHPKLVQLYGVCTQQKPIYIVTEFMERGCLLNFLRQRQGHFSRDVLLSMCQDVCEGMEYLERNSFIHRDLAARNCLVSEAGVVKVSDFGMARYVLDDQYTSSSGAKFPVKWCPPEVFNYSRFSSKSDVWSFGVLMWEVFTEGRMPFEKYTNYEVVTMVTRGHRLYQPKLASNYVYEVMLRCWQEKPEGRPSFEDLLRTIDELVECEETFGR

[2] = molecular target: Serine/threonine-protein kinase 26 (Homo sapiens, UniProt Q9P289)
Chain of Serine/threonine-protein kinase 26 (Q9P289 whole entry): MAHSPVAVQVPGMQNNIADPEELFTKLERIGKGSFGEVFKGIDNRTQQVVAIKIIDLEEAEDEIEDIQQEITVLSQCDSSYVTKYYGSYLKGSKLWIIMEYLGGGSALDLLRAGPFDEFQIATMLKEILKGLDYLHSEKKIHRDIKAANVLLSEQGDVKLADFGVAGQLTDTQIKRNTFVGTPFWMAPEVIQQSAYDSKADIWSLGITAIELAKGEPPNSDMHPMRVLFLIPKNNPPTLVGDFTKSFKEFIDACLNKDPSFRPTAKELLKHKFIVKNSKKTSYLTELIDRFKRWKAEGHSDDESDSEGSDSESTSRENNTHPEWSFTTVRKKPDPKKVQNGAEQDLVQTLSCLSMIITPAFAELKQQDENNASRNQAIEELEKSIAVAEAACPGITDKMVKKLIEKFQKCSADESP

[3] = molecular target: Ras-related protein Rab-6A (Homo sapiens, UniProt P20340)
Chain of Ras-related protein Rab-6A (P20340 whole entry): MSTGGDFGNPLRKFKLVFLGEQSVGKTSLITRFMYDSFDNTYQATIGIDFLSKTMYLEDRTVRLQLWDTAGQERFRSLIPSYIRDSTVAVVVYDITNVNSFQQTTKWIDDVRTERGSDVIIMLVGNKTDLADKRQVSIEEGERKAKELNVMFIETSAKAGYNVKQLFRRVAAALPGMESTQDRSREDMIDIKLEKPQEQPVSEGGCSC

[4] = molecular target: GTP-binding nuclear protein Ran (Homo sapiens, UniProt P62826)
[5] = molecular target: T2, Acyl-CoA dehydrogenase family member 11 (Homo sapiens, UniProt Q709F0)
T2 sequence (Q709F0 whole entry): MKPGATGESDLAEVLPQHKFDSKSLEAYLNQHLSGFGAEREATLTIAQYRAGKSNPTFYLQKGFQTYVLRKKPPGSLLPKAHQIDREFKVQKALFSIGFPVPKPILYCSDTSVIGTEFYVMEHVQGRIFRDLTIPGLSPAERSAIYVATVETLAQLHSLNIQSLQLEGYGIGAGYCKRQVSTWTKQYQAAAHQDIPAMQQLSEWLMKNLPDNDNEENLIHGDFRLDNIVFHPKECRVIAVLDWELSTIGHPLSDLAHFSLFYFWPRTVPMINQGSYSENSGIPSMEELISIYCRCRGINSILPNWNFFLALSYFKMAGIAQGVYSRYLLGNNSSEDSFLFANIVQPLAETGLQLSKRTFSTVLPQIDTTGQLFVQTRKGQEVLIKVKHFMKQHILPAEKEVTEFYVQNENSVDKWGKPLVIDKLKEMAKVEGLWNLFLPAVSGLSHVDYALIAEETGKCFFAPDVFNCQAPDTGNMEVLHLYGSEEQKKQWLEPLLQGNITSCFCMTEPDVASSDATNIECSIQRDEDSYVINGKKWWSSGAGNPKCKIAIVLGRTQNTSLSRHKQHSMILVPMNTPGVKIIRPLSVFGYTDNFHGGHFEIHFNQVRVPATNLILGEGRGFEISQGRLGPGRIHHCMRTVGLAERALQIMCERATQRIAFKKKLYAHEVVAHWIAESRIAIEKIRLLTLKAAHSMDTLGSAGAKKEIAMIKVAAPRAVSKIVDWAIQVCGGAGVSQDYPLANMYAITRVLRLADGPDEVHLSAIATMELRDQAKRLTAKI

[6] = molecular target: Casein kinase I isoform gamma-1 (Homo sapiens, UniProt Q9HCP0)
Chain of Casein kinase I isoform gamma-1 (Q9HCP0 whole entry, canonical isoform): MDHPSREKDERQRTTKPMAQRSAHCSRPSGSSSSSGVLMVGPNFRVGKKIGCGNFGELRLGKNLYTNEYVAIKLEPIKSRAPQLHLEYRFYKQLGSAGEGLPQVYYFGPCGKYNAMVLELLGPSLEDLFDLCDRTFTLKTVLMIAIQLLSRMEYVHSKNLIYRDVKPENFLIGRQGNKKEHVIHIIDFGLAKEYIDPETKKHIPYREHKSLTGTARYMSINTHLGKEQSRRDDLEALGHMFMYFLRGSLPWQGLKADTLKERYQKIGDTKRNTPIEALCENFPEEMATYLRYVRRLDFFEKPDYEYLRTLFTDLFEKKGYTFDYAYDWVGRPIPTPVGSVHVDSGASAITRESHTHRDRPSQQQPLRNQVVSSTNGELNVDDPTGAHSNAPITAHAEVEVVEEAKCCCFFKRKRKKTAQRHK

[7] = molecular target: Serine/threonine-protein kinase/endoribonuclease IRE2 (Homo sapiens, UniProt Q76MJ5)
Chain of Serine/threonine-protein kinase/endoribonuclease IRE2 (Q76MJ5 whole entry): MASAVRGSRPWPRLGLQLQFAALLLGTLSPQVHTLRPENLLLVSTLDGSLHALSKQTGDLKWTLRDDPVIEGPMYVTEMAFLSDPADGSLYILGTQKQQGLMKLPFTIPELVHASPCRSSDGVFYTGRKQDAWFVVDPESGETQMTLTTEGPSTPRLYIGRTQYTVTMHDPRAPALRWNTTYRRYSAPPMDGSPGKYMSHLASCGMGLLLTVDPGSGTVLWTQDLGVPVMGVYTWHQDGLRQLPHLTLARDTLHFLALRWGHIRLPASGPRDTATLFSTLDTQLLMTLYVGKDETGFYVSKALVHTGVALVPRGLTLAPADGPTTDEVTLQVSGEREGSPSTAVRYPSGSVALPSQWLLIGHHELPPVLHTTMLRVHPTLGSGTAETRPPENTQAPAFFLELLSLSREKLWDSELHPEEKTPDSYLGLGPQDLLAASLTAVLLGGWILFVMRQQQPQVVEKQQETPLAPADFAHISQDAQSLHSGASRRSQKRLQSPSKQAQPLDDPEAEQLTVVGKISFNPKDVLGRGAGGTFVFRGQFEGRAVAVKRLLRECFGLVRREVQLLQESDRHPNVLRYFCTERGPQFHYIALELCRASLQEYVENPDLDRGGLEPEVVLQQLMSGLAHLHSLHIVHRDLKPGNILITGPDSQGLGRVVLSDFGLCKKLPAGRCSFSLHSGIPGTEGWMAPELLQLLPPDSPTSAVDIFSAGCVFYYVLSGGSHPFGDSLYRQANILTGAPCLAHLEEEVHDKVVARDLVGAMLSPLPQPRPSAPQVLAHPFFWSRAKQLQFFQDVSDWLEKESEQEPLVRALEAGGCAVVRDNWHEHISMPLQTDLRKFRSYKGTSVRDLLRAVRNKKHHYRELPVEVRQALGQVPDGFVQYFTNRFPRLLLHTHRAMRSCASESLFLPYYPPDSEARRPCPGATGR

Actin-related protein 2 = Actin-related protein 2 (Homo sapiens, UniProt P61160)
[8] = molecular target: T3, Ras-related protein Rab-27A (Homo sapiens, UniProt P51159)
T3 sequence (P51159 whole entry): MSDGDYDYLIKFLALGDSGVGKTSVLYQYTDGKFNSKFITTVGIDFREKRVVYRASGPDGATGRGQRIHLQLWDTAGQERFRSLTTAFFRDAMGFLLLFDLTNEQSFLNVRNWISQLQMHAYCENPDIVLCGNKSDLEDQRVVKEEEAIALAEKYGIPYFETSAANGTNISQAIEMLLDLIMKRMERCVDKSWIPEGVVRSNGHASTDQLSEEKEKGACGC

[9] = molecular target: T4, Bone morphogenetic protein receptor type-2 (Homo sapiens, UniProt Q13873)
T4 sequence (Q13873 whole entry): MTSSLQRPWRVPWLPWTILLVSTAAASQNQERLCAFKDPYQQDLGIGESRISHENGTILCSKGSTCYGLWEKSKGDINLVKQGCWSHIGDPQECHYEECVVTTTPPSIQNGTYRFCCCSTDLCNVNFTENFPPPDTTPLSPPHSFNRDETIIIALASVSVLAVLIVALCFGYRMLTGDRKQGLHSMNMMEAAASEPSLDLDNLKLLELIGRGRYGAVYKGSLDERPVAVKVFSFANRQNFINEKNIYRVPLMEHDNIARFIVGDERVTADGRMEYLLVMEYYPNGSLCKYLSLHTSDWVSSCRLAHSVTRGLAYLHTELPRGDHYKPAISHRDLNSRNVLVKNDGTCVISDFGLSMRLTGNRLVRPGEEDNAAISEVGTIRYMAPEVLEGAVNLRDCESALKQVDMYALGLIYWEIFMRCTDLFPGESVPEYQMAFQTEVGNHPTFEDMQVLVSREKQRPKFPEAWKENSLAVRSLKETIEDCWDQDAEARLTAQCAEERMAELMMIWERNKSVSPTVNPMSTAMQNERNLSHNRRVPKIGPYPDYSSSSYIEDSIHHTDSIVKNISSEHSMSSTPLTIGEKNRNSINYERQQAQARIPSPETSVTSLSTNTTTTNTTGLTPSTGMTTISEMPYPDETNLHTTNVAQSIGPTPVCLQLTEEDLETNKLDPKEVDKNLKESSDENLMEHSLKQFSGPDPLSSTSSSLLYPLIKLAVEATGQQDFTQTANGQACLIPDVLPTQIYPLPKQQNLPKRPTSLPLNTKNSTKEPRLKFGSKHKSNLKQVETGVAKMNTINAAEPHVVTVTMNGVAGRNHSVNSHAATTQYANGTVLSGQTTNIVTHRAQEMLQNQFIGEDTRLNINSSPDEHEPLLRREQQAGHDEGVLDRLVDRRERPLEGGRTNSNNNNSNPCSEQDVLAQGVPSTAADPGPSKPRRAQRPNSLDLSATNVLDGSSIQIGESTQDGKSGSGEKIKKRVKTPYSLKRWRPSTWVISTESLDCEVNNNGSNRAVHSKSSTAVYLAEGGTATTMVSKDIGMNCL
Further: in the data inactive means no Kd found up to 30 µM.

Compound | Kd [1] | Kd [2] | Kd [3] | Kd [4] | Kd [5] | Kd [6] | Kd [7] | Kd (Actin-related protein 2) | Kd [8] | Kd [9]
COc1ccc(-c2ccc3c(N4CCOC[C@@H]4C)nc(N4CCOC[C@@H]4C)nc3n2)cc1CO [AZD-8055] | > 30 µM (inactive) | > 30 µM (inactive) | > 30 µM (inactive) | > 30 µM (inactive) | > 30 µM (inactive) | > 30 µM (inactive) | > 30 µM (inactive) | > 30 µM (inactive) | > 30 µM (inactive) | > 30 µM (inactive)
COc1cc2nccc(Oc3ccc(NC(=O)Nc4cc(C)on4)c(Cl)c3)c2cc1OC [TIVOZANIB] | > 30 µM (inactive) | > 30 µM (inactive) | > 30 µM (inactive) | > 30 µM (inactive) | > 30 µM (inactive) | > 30 µM (inactive) | > 30 µM (inactive) | > 30 µM (inactive) | > 30 µM (inactive) | > 30 µM (inactive)
C[C@@H](Nc1cc(F)cc(F)c1)c1cc(C(=O)N(C)C)cc2c(=O)cc(N3CCOCC3)oc12 [AZD-8186] | > 30 µM (inactive) | > 30 µM (inactive) | > 30 µM (inactive) | > 30 µM (inactive) | > 30 µM (inactive) | > 30 µM (inactive) | 1.5 µM | > 30 µM (inactive) | > 30 µM (inactive) | > 30 µM (inactive)
CNC(=O)CN1CCC(Oc2cc3c(Nc4cccc(Cl)c4F)ncnc3cc2OC)CC1 [SAPITINIB] | > 30 µM (inactive) | > 30 µM (inactive) | > 30 µM (inactive) | > 30 µM (inactive) | > 30 µM (inactive) | > 30 µM (inactive) | > 30 µM (inactive) | > 30 µM (inactive) | > 30 µM (inactive) | > 30 µM (inactive)
CCCS(=O)(=O)Nc1ccc(F)c(C(=O)c2c[nH]c3ncc(-c4ccc(Cl)cc4)cc23)c1F [VEMURAFENIB] | > 30 µM (inactive) | > 30 µM (inactive) | > 30 µM (inactive) | > 30 µM (inactive) | > 30 µM (inactive) | > 30 µM (inactive) | > 30 µM (inactive) | > 30 µM (inactive) | > 30 µM (inactive) | > 30 µM (inactive)
COC(=O)[C@@]1(O)C[C@H]2O[C@]1(C)n1c3ccccc3c3c4c(c5c6ccccc6n2c5c31)C(=O)NC4 [K-252A] | > 30 µM (inactive) | > 30 µM (inactive) | > 30 µM (inactive) | > 30 µM (inactive) | > 30 µM (inactive) | > 30 µM (inactive) | 0.908 µM (active) | > 30 µM (inactive) | > 30 µM (inactive) | > 30 µM (inactive)
CCn1c(=O)c(-c2cc[nH]n2)cc2c(C)nc(N)nc21 [VOXTALISIB] | > 30 µM (inactive) | > 30 µM (inactive) | > 30 µM (inactive) | > 30 µM (inactive) | > 30 µM (inactive) | > 30 µM (inactive) | > 30 µM (inactive) | > 30 µM (inactive) | > 30 µM (inactive) | > 30 µM (inactive)
Cc1cc2c(F)c(Oc3ncnn4cc(OC[C@@H](C)OC(=O)[C@H](C)N)c(C)c34)ccc2[nH]1 [BRIVANIB ALANINATE] | > 30 µM (inactive) | > 30 µM (inactive) | > 30 µM (inactive) | > 30 µM (inactive) | > 30 µM (inactive) | > 30 µM (inactive) | > 30 µM (inactive) | > 30 µM (inactive) | > 30 µM (inactive) | > 30 µM (inactive)
COc1cc(OC)c(/C=C/S(=O)(=O)Cc2ccc(OC)c(NCC(=O)O)c2)c(OC)c1 [RIGOSERTIB] | > 30 µM (inactive) | > 30 µM (inactive) | > 30 µM (inactive) | > 30 µM (inactive) | > 30 µM (inactive) | > 30 µM (inactive) | > 30 µM (inactive) | > 30 µM (inactive) | > 30 µM (inactive) | > 30 µM (inactive)
Cn1cc(-c2ccc(F)c(C(F)(F)F)c2)nc1C1CCN(c2ncnc3[nH]ncc23)CC1 [LY-2584702] | > 30 µM (inactive) | > 30 µM (inactive) | > 30 µM (inactive) | > 30 µM (inactive) | > 30 µM (inactive) | > 30 µM (inactive) | > 30 µM (inactive) | > 30 µM (inactive) | > 30 µM (inactive) | > 30 µM (inactive)
O=C1NC(=O)/C(=C/c2ccc3nccc(-c4ccncc4)c3c2)S1 [GSK-1059615] | > 30 µM (inactive) | > 30 µM (inactive) | > 30 µM (inactive) | > 30 µM (inactive) | > 30 µM (inactive) | 17.5 µM (active) | > 30 µM (inactive) | > 30 µM (inactive) | > 30 µM (inactive) | > 30 µM (inactive)
CNC(=O)c1cc(Oc2ccc(NC(=O)Nc3ccc(Cl)c(C(F)(F)F)c3)c(F)c2)ccn1 [REGORAFENIB] | > 30 µM (inactive) | > 30 µM (inactive) | > 30 µM (inactive) | > 30 µM (inactive) | > 30 µM (inactive) | > 30 µM (inactive) | > 30 µM (inactive) | > 30 µM (inactive) | > 30 µM (inactive) | > 30 µM (inactive)
OCCn1cc(-c2cnc3nnn(Cc4ccc5ncccc5c4)c3n2)cn1 [PF-04217903] | > 30 µM (inactive) | > 30 µM (inactive) | > 30 µM (inactive) | > 30 µM (inactive) | > 30 µM (inactive) | > 30 µM (inactive) | > 30 µM (inactive) | > 30 µM (inactive) | > 30 µM (inactive) | > 30 µM (inactive)
